Among the data in ChEMBL document CHEMBL2074070, “Circumvention of breast cancer resistance protein (BCRP)-mediated resistance to camptothecins in vitro using non-substrate drugs or the BCRP inhibitor GF120918” (Clin Cancer Res, 2001) are Activity values, retold here.

Molecules are shown by their SMILES.

What all share (type): functional, cell-based
Series [1] addresses T1, Broad substrate specificity ATP-binding cassette transporter ABCG2 (Homo sapiens, UniProt Q9UNQ0).
T1 sequence (Q9UNQ0 whole entry): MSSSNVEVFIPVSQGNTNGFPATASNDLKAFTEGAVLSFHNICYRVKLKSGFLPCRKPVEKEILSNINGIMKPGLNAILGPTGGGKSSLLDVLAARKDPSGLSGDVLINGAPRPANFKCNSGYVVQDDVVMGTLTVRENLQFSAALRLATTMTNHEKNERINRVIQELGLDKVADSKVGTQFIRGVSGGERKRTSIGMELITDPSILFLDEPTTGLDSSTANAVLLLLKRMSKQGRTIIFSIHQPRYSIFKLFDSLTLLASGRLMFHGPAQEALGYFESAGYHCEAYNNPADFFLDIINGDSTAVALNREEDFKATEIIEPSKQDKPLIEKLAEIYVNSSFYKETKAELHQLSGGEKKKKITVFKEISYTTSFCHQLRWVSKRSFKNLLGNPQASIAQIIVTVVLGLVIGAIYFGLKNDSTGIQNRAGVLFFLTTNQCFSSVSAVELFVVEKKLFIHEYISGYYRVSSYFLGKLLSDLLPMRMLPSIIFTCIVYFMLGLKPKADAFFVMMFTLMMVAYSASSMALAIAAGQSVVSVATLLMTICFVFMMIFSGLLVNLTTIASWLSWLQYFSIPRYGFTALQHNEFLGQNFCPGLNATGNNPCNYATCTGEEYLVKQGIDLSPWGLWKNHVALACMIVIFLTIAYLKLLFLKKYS
Briefly: TP_TRANSPORTER: increase in Topotecan intracellular accumulation (Topotecan: 1.9 uM, GF120918: 2 uM) in T8 cells.

Series [2] concerns the target T1, Broad substrate specificity ATP-binding cassette transporter ABCG2. Briefly: TP_TRANSPORTER: increase in Topotecan intracellular accumulation (Topotecan: 1.9 uM, GF120918: 2 uM) in MX3 cells.
Series [3] has the same target. Kind of series: TP_TRANSPORTER: increase of cytotoxicity by GF120918 in MX3 cells.
For series [4] the target is unchanged. Kind of series: TP_TRANSPORTER: increase of cytotoxicity by GF120918 in T8 cells.
Series [5] shares this target. Kind of series: TP_TRANSPORTER: increase in intracellular accumulation by GF120918 in T8 cell.

Take `COc1cc2c(cc1OC)CN(CCc1ccc(NC(=O)c3cccc4c(=O)c5cccc(OC)c5[nH]c34)cc1)CC2.Cl` [ELACRIDAR HYDROCHLORIDE]: the Activity entry in series [1] and in series [2] was “inhibitor [+]” each time.

`CC[C@@]1(O)C(=O)OCc2c1cc1n(c2=O)Cc2c-1nc1cc(F)c(C)c3c1c2[C@@H](N)CC3` [EXATECAN]: the Activity entry in series [3] and in series [4] was “substrate []” in each case.

For `CC[C@@]1(O)C(=O)OCc2c1cc1n(c2=O)Cc2cc3c(CN(C)C)c(O)ccc3nc2-1` [TOPOTECAN], the Activity entry in series [5] is “substrate [+]”.
